In US20110251135A1, “INHIBITORS OF PERITONEAL SEEDING OF CANCER CELLS” (University of Utah Research Foundation, priority 2008, published 2011):
Entries after “also recorded” stand apart in the source; their conditions may differ.

Experiments:
Assay type in all cases: cell-based, human
[1] = tested on: DLD-1, HCT-116, HT-29 colon cancer cell lines; test: Cell proliferation assay (crystal violet, 96-well); settings: 10 μM, cultured up to 8 days
Protocol: The data points represent the means of triplicate experiments and the error bars the standard errors of the means. […] The percent of apoptotic cells was then determined by the annexin V assay. […] The results shown are typical of two separate experiments. […] Immunoblots were performed for c-IAP-2, TRAF-1, TRAF-2, and FLIP. All lanes contain equal total protein.
For the cell proliferation assay, cells were dispersed and plated at 40,000 cells/well in 96-well dishes. At various days in culture, the cells were gently washed twice with 100 μL/well of ice-cold blocking buffer (1% radioimmunoassay grade BSA in PBS) and twice with 100 μL/well of ice-cold PBS. The cells were fixed for 10 min in 100% ice-cold methanol (100 μL/well), then allowed to air-dry. The cells were stained with 100 μL/well of 0.1% crystal violet in H20 for 10 minutes, then washed gently four times with dd H20 and four times with PBS. The plates were then air-dried completely. The stained cells were then solubilized in 1% sodium deoxycholate, and the plates read at 590 nm in a spectrophotometer. The absorption at 590 nm is proportional to the number of attached cells.

[2] = tested on: NF-κB; test: NF-κB binding activity assay (TRANS-AM) in HT-29 cells
Protocol: (§1) The transiently suspended cells were lysed and allowed to bind to DNA oligonucleotides, containing the NF-κB consensus binding site, that were immobilized to 96-well plates. NF-κB protein bound to the oligonucleotides was detected by an antibody to the p65 subunit that only recognized p65 that is bound to DNA. The positive control was HeLa cells that were stimulated with TNFα. A control was performed using excess free NF-κB oligonucleotides (Competitor). […] NF-κB binding activity was determined by the TransAM assay as in FIG. 5A. […] The data shown represent typical results of three separate experiments. […] An immunoblot for COX-2 was performed.
Activation of NF-κB was also determined using the TRANS-AM™ assay (Active Motif, Carlsbad, Calif.) per the manufacturer's instructions. (Renard et al., “Development of a sensitive multi-well colorimetric assay for active NF-κB,” Nucleic Acids Res 29, E21, 2001). Briefly, cell monolayers on 60 mm dishes were washed with ice-cold PBS and removed by incubating in trypsin-PBS or scraping. The cells were centrifuged for 10 minutes at 1,000 rpm at 4° C. and resuspended for 10 minutes in 100 μL of 4° C. lysis buffer (20 mM HEPES (pH 7.5), 350 mM NaCl, 20% glycerol, 1% Igepal-CA630, 1 mM MgCl2, 0.5 mM EDTA, 0.1 mM EGTA, 1 μL of 1 M dithiothreitol and 10 μL of protease inhibitor cocktail (proprietary) per mL of lysis buffer). The lysates were centrifuged for 20 minutes at 14,000 g at 4° C. Lysates containing 5 μg of total protein were added to 20 μL of lysis buffer per well in 96-well dishes containing immobilized oligonucleotides corresponding to the NF-κB consensus DNA binding site (SEQ ID NO:2) (5′-[…]-3′). […] 100 μL of stop solution (0.5M H2SO4) was added to each well after which the absorbance was determined on a plate spectrophotometer at 450 nm. Specificity of binding was determined using 200-fold excess wildtype NF-κB oligonucleotides added at the time the cell lysates were added to the wells.
The same NF-κB binding assay was used to determine whether NF-κB inhibitors could diminish the activation of NF-κB by readhesion. […]

[3] = tested on: transiently suspended DLD-1 cells; test: Apoptosis of transiently suspended cells during readhesion (annexin V assay); settings: DLD-1 transiently suspended, treated and allowed to readhere; 8 hours
Protocol: as §1
(§2) Single cell suspensions were plated at 100,000 cells per well in 24-well plates in media containing DMSO, BAY 11-7082, BAY 11-7085, or MG-132 for 8-24 hours in an incubator. Alternatively, DMSO, BAY 11-7082, BAY 11-7085, or MG-132 were added to cells that were confluent and adherent for several days. The nonadherent cells were aspirated off with the media and spun for 3 minutes at 2,000 rpm in 15 mL polypropylene tubes. […] 400 μL of binding buffer was added to each tube and the cells were analyzed by flow cytometry immediately. The percent of apoptosis was determined as the percent of annexin V-positive, propidium iodide-negative cells of the total cells counted. […]

[4] = tested on: transiently suspended HCT-116 cells; test: as above; settings: HCT-116 transiently suspended, treated and allowed to readhere; 8 hours
Protocol: as §1, §2

**Q.** What does the source list for CC(C)(C)c1ccc(S(=O)(=O)/C=C/C#N)cc1 [BAY 11-7085, (2E)-3-[4-(tertiarybutylphenyl)sulfonyl]-2-propenenitrile]?
**A.** cell proliferation [1]: greatly inhibited cell proliferation; constitutive NF-κB activation in adherent cells ([2]; adherent cells, increasing concentrations, up to 50 μM, 8 hours): relatively unaffected; also recorded: could not be inhibited; NF-κB activation induced by readhesion of transiently suspended colon cancer cells ([2]; as little as 10 μM BAY 11-7085): almost totally inhibited; NF-κB activation caused by readhesion (TRANS-AM) ([2]; transiently suspended HT-29, increasing concentrations, 8 hours): dose-related inhibition of this NF-κB activation; BAY 11-7085-induced apoptosis during readhesion [3]: showed the same propensity for BAY 11-7085-induced apoptosis; BAY 11-7085-induced apoptosis during readhesion [4]: HCT-116 cells did not
